Holding throughout (type): cell-based
The test system of assay [1] is E. coli ATCC25922. Briefly: Antibacterial activity in combination with linezolid (growth inhibition). The note with it: Escherichia coli, ATCC25922, compound at 50 μM; linezolid 128 μg/mL; OD625 23 h minus 1 h; read-out: residual growth of E. coli ATCC25922 (% of uninhibited control) with linezolid. The protocol: (§1) Antibacterial activity in combination with minocycline or with linezolid
(§2) Inhibition of growth was measured with E. coli ATCC25922 and P. aeruginosa PAO1 in a 96-well plate format. Cation-adjusted Müller-Hinton broth (caMHB) was inoculated with an overnight culture and incubated at 37° C. on a shaker until OD625 reached 0.6 to 0.7. Density was adjusted to OD600=0.5 by addition of caMHB. 35 μL of the suspension were diluted to 35 mL with caMHB and supplemented with minocycline at the subinhibitory doses of 0.25 μg/mL for E. coli and 8 μg/mL for P. aeruginosa or with linezolid at the subinhibitory dose of 128 μg/mL for E. coli and P. aeruginosa. Each well contained 1 μL of test compound in 100 μL caMHB with minocycline or with linezolid.
(§3) Plates were incubated at 37° C. on a plate shaker. OD625 was measured at 1 h, 6 h, and at 23 h.
(§4) The difference between OD at 23 h and at 1 h was taken as measure for cell density and compared to controls without inhibitor (i.e. uninhibited control). Results were expressed as residual growth (% of uninhibited control). Enhancement of minocycline or linezolid activity caused reduced residual growth.

The subject of assay [2] is P. aeruginosa PAO1. Briefly: Antibacterial activity in combination with minocycline (growth inhibition). Conditions: Pseudomonas aeruginosa, PAO1, compound at 50 μM; minocycline 8 μg/mL; OD625 23 h minus 1 h; read-out: residual growth of P. aeruginosa PAO1 (% of uninhibited control) with minocycline. In short, it runs like this:
(§5)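 Test compound combined with fixed subinhibitory partner antibiotic: linezolid 128 μg/mL for either strain, minocycline 0.25 μg/mL (E. coli) or 8 μg/mL (P. aeruginosa), in caMHB shaken at 37 °C. Residual growth as % of inhibitor-free control, from OD625 at 23 h minus 1 h.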

Assay [3] relates to P. aeruginosa PAO1. Briefly: Antibacterial activity in combination with linezolid (growth inhibition). The note with it: Pseudomonas aeruginosa, PAO1, compound at 50 μM; linezolid 128 μg/mL; OD625 23 h minus 1 h; read-out: residual growth of P. aeruginosa PAO1 (% of uninhibited control) with linezolid. The protocol: as §1, §2, §3, §4
The test system of assay [4] is E. coli ATCC25922. Briefly: Antibacterial activity in combination with minocycline (growth inhibition). The note with it: Escherichia coli, ATCC25922, compound at 25 μM; minocycline 0.25 μg/mL; OD625 23 h minus 1 h; read-out: residual growth of E. coli ATCC25922 (% of uninhibited control) with minocycline. In short, it runs like this:
as §5

The structures appear in SMILES notation. A value given as a limit tells only on which side of the number the result lay.

For `Clc1ccccc1COc1ccc(CNCC2CCNCC2)cc1` [Example 1], the activity at 50 µM in assay [1] and in assay [2] was not above 50% in each case. As for `Clc1ccc(COc2ccc(CNCC3CNC3)cc2)c(Br)c1` [Example 36], the activity at 50 µM in assay [3] is not above 50%. Besides, the activity at 25 µM in assay [4] was not above 10%. `Clc1ccc(COc2ccc(CNCC3CCNC3)cc2)c(Br)c1` (centres unmarked) [Example 63]: in assay [3], the activity at 50 µM is not above 50%. Also, the activity at 25 µM in assay [4] was not above 10%.

Turning to `Clc1ccc(COc2ccc(CCNCC3CNC3)cc2)c(Br)c1` [Example 100], the activity at 50 µM in assay [1] is not above 50%. Further, the activity at 25 µM in assay [4] was not above 10%. As to `O=C(Nc1ccc(CNCC2CNC2)cc1Cl)c1ccc(Cl)cc1C(F)(F)F` [Example 161], the activity at 50 µM in assay [1] is not above 50%. Consider `Clc1ccc(COc2cc(CNCC3CNC3)cc(OCC3CC3)c2)c(Cl)c1` [Example 166], for which the activity at 50 µM in assay [3] was not above 50%. For the same compound, the activity at 25 µM in assay [4] was not above 10%.

Take `CC(C)Oc1cc(C[N+](C)(C)CC2CCNC2)cc(OCc2ccc(Cl)cc2Br)c1` (centres unmarked) [Example 167]: the activity at 50 µM in assay [3] is not above 50%. For the same compound, the activity at 25 µM in assay [4] is not above 10%.

For `NCC1CCC(CNCc2cccc(OCc3ccc(Cl)cc3Br)c2)N1` (centres unmarked) [Example 192], the activity at 50 µM in assay [3] and in assay [2] was not above 50% in each case. The activity at 25 µM in assay [4] is not above 10%. `C[N+](C)(CC(=O)O)Cc1cc(CNCC2CNC2)cc(OCc2ccc(Cl)cc2Br)c1` [Example 232]: in assay [1], the activity at 50 µM was not above 50%. The same measure, in the same setting: in the case of `CN(CC(=O)O)Cc1cc(CNCC2CNC2)cc(OCc2ccc(Cl)cc2Br)c1` [Example 244] it was not above 50%. Regarding `Clc1ccc(COc2cc(CNCC3CCNC3)cc(OCCc3c[nH]cn3)c2)c(Br)c1` (centres unmarked) [Example 251], the activity at 50 µM in assay [3] was not above 50%. Also, the activity at 25 µM in assay [4] is not above 10%.

With `CC(C)(C)c1ccc(COc2cc(CNCC3CNC3)cc(C(F)(F)F)c2)cc1` [Example 273], in assay [3], the activity at 50 µM is not above 50%. For the same compound, the activity at 25 µM in assay [4] was not above 10%. Regarding `C=CCOc1cc(/C=C/c2cccc(C#N)c2)cc(CNCC2CCNC2)c1` (centres unmarked) [Example 305], the activity at 50 µM in assay [3] is not above 50%. Besides, the activity at 25 µM in assay [4] was not above 10%. On to `CC(C)COc1cc(/C=C/c2cccnc2)cc(CNCC2CCNC2)c1` (centres unmarked) [Example 332], for which the activity at 50 µM in assay [3] and in assay [2] was not above 50% in each case. Moreover, the activity at 25 µM in assay [4] is not above 10%.

Turning to `CC(C)COc1cc(/C=C/c2ccc(C(N)=O)cc2)cc(CNCC2CCNC2)c1` (centres unmarked) [Example 337], the activity at 50 µM in assay [3] was not above 50%. Besides, in assay [4], the activity at 25 µM is not above 10%. Turning to `C[N+](C)(Cc1cc(OCCc2c[nH]cn2)cc(OCc2ccc(Cl)cc2Br)c1)CC1CNC1` [Example 389], in assay [3], the activity at 50 µM was not above 50%. The activity at 25 µM in assay [4] was not above 10%.

For the compound `C[N+](C)(Cc1cc(OCCc2c[nH]cn2)cc(OCc2ccc(Cl)cc2Br)c1)CC1CCNC1` (centres unmarked) [Example 404], in assay [3], the activity at 50 µM is not above 50%. Also, the activity at 25 µM in assay [4] is not above 10%. In the case of `c1cncc(COc2cc(CNCC3CCNC3)cc(OCCc3ccncc3)c2)c1` (centres unmarked) [Example 427], the activity at 50 µM in assay [1] is not above 50%. Still for that read-out and setting: in the case of `c1cncc(COc2cc(CNCC3CNC3)cc(OCCN3CCOCC3)c2)c1` [Example 428] it was not above 50%. On to `CC(C)COc1ccc(/C=C/c2ccc(Cl)cc2Br)cc1CNCC1CNC1` [Example 432], for which the activity at 50 µM in assay [3] was not above 50%. Further, the activity at 25 µM in assay [4] is not above 10%.

With `C(=C\c1cc(CNCC2CNC2)cc(OCCN2CCOCC2)c1)/c1cccnc1` [Example 442], the activity at 50 µM in assay [1] was not above 50%. With `C=CCOc1cc(/C=C/c2ccc(Cl)cc2Br)cc(C(=O)NCCN(CC2CNC2)CC2CNC2)c1` [Example 447], the activity at 50 µM in assay [1] was not above 50%. Also, the activity at 25 µM in assay [4] was not above 10%. Take `C=CCOc1cc(/C=C/c2cncc(C(=O)O)c2)cc(CNCC2CCNC2)c1` (centres unmarked) [Example 449]: the activity at 50 µM in assay [1] is not above 50%.

Take `C=CCOc1cc(/C=C/c2ccc(Cl)cc2Br)cc(C(=O)NCCNC(=O)C2CNC2)c1` [Example 454]: the activity at 50 µM in assay [3] is not above 50%. The activity at 25 µM in assay [4] is not above 10%. Consider `C=CCOc1cc(/C=C/c2cncc(C(=O)N(C)C)c2)cc(CNCC2CCNC2)c1` (centres unmarked) [Example 467], for which the activity at 50 µM in assay [3] and in assay [2] was not above 50% throughout. Take `N#Cc1cncc(/C=C/c2cc(OCc3ccccn3)cc(CNCC3CCNC3)n2)c1` (centres unmarked) [Example 482]: the activity at 50 µM in assay [1] was not above 50%. On the same count and under the same terms, in the case of `N#Cc1cncc(/C=C/c2cc(CNCC3CCNC3)cc(OCCN3CCOCC3)c2)c1` (centres unmarked) [Example 484, 5-[(E)-2-[3-(2-morpholinoethoxy)-5-[(pyrrolidin-3-ylmethylamino)methyl]phenyl]vinyl]pyridine-3-carbonitrile] it was not above 50%. Still for that read-out and setting: in the case of `N#Cc1cncc(/C=C/c2cc(CNCC3CCNC3)cc(OCc3n[nH]c(=O)o3)c2)c1` (centres unmarked) [Example 491, 5-[(E)-2-[3-[(2-oxo-3H-1,3,4-oxadiazol-5-yl)methoxy]-5-[(pyrrolidin-3-ylmethylamino)methyl]phenyl]vinyl]pyridine-3-carbonitrile] it was not above 50%.

Regarding `Oc1ncc(/C=C/c2ccc(Cl)cc2Br)cc1CNCC1CCNC1` (centres unmarked) [Example 494, 5-[(E)-2-(2-bromo-4-chloro-phenyl)vinyl]-3-[(pyrrolidin-3-ylmethylamino)methyl]pyridin-2-ol], the activity at 50 µM in assay [3] is not above 50%. Besides, the activity at 25 µM in assay [4] was not above 10%. On to `CC(C)COc1cc(CNCC2CCNC2)cc(S(=O)(=O)Cc2cccnc2)c1` (centres unmarked) [Example 495], for which the activity at 50 µM in assay [1] is not above 50%. Turning to `CC(C)COc1cc(/C=C/c2cccnc2)cc(C(=O)CNCC2CCNC2)c1` (centres unmarked) [Example 502, 1-[3-isobutoxy-5-[(E)-2-(3-pyridyl)vinyl]phenyl]-2-(pyrrolidin-3-ylmethylamino)ethanone], the activity at 50 µM in assay [1] and in assay [2] was not above 50% each time. Take `O=C(NCCN(CC1CNC1)CC1CNC1)c1cc(OCCc2ccncc2)cc(OCc2cccnc2)c1` [Example 506, N-[2-[bis(azetidin-3-ylmethyl)amino]ethyl]-3-[2-(4-pyridyl)ethoxy]-5-(3-pyridylmethoxy)benzamide]: the activity at 50 µM in assay [1] was not above 50%. For the compound `O=C(NCCN(CC1CNC1)CC1CNC1)c1cc(CNC(=O)c2cccnc2)cc(OCCc2ccncc2)c1` [Example 507, N-[[3-[2-[bis(azetidin-3-ylmethyl)amino]ethylcarbamoyl]-5-[2-(4-pyridyl)ethoxyl]phenyl]methyl]pyridine-3-carboxamide], the activity at 50 µM in assay [1] and in assay [2] was not above 50% throughout.

The record behind these values is patent US10464896B2, “Efflux-pump inhibitors and therapeutic uses thereof” (Basilea Pharmaceutica International AG, priority 2015, dated 2019).
